Data set [1] concerns the target T1, sst4 receptor (Homo sapiens, UniProt P31391).
T1 construct: expressed in transfected cells
Description: Somatostatin sst4 receptor-coupled G-protein activation assay ([35S]GTPγS binding). It is filed as biochemical. The note with it: 100 nM concentration; membrane fractions of CHO cells stably expressing the sst4 receptor; percentage over specific binding in absence of agonists. From the text:
[^35S]GTPγS binding assay is a functional test determining agonist-induced and receptor-mediated G-protein activation which is based on the increase in guanine nucleotide exchange at G-proteins upon agonist stimulation. The interaction of a G protein-coupled receptor (GPCR) with the G protein is the first step in the transduction of the receptor binding signal to the activation of the second-messenger systems. We measured the level of [^35S]-GTPγS bound to the α subunit of G proteins and determined the efficacy of the compounds. Compounds which elicited 200% [^35S]GTPγS binding in nanomolar concentration were considered effective agonist. The examined compounds were added into the medium in 1 nM, 10 nM, 100 nM 1 μM and 10 μM concentrations.
Membrane fractions were prepared from CHO cells stably expressing the sst4 receptor in Tris-EGTA buffer (50 mM Tris-HCl, 1 mM EGTA, 3 mM MgCl2, 100 mM NaCl, pH 7.4). These membrane fractions (˜10 μg of protein/sample) were incubated at 30° C. for 60 min in the same Tris-EGTA buffer containing [^35S]GTPγS (0.05 nM) and increasing concentrations (10^−9 to 10^−5 M) of test compounds in the presence of 30 μM GDP in a final volume of 500 μl. Non-specific binding was determined in the presence of 10 μM unlabelled GTPγS. Total binding was measured in the absence of test compounds. To calculate the specific binding, non-specific binding was subtracted from total binding. The reaction was terminated by filtrating the samples through Whatman GF/B glass fiber filters. Using 48-well Slot Blot Manifold from Cleaver Scientific filters were washed three times with ice-cold 50 mM Tris-HCl buffer (pH 7.4). After drying for 60 min at 37° C., radioactivity was measured in scintillation liquid in a Packard Tri-Carb 2800 TR scintillation counter. Test compound-induced G-protein stimulation was given as percentage over the specific [^35S]GTPγS binding observed in the absence of agonists.

Data set [2] relates to rat. Description: Plantar incision-induced heat allodynia (increasing temperature water bath), postoperative pain model. It is filed as in vivo. The note with it: 100 μg/kg p.o., measured 60 min later; one day after plantar incision. As to the method:
Rats were anaesthesized with sodium-pentobarbital (Euthasol, 40 mg/kg i.p.) and a 1 cm longitudinal incision was made through the skin, fascia and muscle of the plantar aspect of the hindpaw. Significant decrease of both the thermonociceptive and mechanonociceptive thresholds (heat and mechanical allodynia) of the paw develops 1 day after this procedure.
One hundred and forty five (145) female Wistar rats (150-250 g) kept in the Animal House of the University of Pecs in a temperature-controlled room provided with a 12-hour light-dark cycle, standard rat chow and water ad libitum were used in this experimental series. […] Touch sensitivity was measured with a dynamic plantar aesthesiometer (DPA) and the thermonociceptive threshold was determined with an increasing temperature water-bath (ITWB) on the same rats (see below). […] Test compounds were administered p.o. and post-dose touch sensitivity and thermonociceptive thresholds were measured 60 min later. […]
b) The thermonociceptive threshold of the paw was determined with an increasing temperature water bath developed and validated in our laboratories in cooperation with Experimetria Ltd. (Budapest, Hungary). […] The controlling unit has a 30° C. starting temperature, heating rate and a display continuously showing the actual bath temperature measured by a thermocouple at the middle position 35 mm below the water level. […]

Data set [3] has as its system rat. The data set can be described thus: Mustard oil-induced acute neurogenic inflammation in the paw skin of the rat (Evans blue leakage). The format is in vivo. The note with it: 100 μg/kg p.o. 60 min before 1% mustard oil; vs vehicle-treated control; listed as BST-1693. The protocol: Deep anaesthesia was performed with sodium-thiopental (50 mg/kg i.p.). Both hindlegs of the rats were acutely denervated (the sciatic and the saphenous nerves were cut 30 min before the induction of inflammation) to avoid the influence of reflex mechanisms. Inflammation in the dorsal skin of the hindpaws was evoked by topical application of 1% mustard oil dissolved in paraffin oil. This compound selectively activates capsaicin-sensitive peptidergic fibres through the TRPA1 ion channel, therefore induces acute inflammatory reaction with exclusively neurogenic mechanisms via the release of pro-inflammatory sensory neuropeptides, such as substance P and CGRP. Extravasation of plasma albumin was measured by the Evans blue leakage method (see FIG. 2). Evans blue (50 mg/kg) which binds to plasma albumine, was injected i.v. and neurogenic inflammation was induced 5 min later. […] The amount of the accumulated Evans blue, which quantitatively correlates with the intensity of plasma extravasation, was expressed as μg dye/g wet skin (Helyes et at, 1997, 2001, 2006; Borzsei et al., 2008). […]
Extravasation of plasma albumin in the dorsal skin of the hindpaws was measured by the Evans blue leakage method. […] The skin of the hindpaws was removed, their weight was measured and the extravasated dye was extracted with formamide at room temperature during 72 h for photometric determination at 620 nm. […]

Data set [4] in a line: Analgesic and anti-inflammatory models shown within the examples. The note with it: in vivo.

T1 sequence (P31391 whole entry): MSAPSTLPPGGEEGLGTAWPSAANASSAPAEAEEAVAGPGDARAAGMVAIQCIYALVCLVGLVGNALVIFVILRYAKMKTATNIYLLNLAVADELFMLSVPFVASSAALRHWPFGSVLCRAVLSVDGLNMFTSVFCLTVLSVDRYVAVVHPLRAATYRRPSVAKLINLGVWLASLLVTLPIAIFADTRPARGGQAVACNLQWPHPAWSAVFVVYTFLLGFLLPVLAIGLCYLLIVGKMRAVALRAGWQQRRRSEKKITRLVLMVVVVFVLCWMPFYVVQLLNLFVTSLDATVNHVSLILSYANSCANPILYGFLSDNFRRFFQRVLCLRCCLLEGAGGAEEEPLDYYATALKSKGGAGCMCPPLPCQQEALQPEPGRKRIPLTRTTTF

As for `CC(=O)Nc1ccc(CCNc2ncnc3c2c(C)c(C)n3Cc2ccccc2)cc1` [Example 3, N-{4-[2-(7-Benzyl-5,6-dimethyl-7H-pyrrolo[2,3-d]pyrimidin-4-ylamino)-ethyl]-phenyl}-acetamide], the melting point is 186.9 to 187.7 °C. Moreover, the “[35S]GTPγS binding (G-protein activation)” value in data set [1] is 210.67%. The “effectiveness in inhibiting the decrease of the heat threshold” value in data set [2] stood at 18.2%.
`Cc1c(C)n(Cc2ccccc2)c2ncnc(NCCc3ccc(N)cc3)c12` [Example 1, [2-(4-Amino-phenyl)-ethyl]-(7-benzyl-5,6-dimethyl-7H-pyrrolo[2,3-d]pyrimidin-4-yl)-amine] showed a melting point of 150.7 to 151.8 °C. Also, the “inhibition of acute neurogenic inflammatory response (Evans blue accumulation in hindpaw skin)” value in data set [3] was 70.4%.
`COc1ccc(CCNc2ncnc3c2cc(C)n3Cc2ccc(OC)c(OC)c2)cc1OC` [compound (a)]: in data set [4], the “activity in the analgesic and anti-inflammatory models” value is “totally inactive”.
